Laboratory results taken from paper PMC6199744, “Development of Chemical Proteomics for the Folateome and Analysis of the Kinetoplastid Folateome” (ACS Infectious Diseases, 2018).
Where two headings read alike, the source gives them in different places.

Key:
Assay type in all cases: binding
[1] = biological target: T1, HeLa cell extract proteins (Homo sapiens, UniProt O15162)
T1 construct: endogenous in cells; host or cells: HeLa cell extract
T1 sequence (O15162 1-318): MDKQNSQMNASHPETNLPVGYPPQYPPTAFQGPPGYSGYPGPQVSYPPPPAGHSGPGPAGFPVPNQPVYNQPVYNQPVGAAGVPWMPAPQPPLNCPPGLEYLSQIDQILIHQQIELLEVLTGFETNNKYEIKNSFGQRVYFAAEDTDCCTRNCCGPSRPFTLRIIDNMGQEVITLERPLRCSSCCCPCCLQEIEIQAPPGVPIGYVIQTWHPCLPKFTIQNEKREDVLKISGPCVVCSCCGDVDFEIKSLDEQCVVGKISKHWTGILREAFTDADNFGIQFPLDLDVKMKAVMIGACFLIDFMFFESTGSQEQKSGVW

[2] = biological target: T2, HeLa cell extract proteins (Homo sapiens, UniProt Q53G59)
T2 construct: endogenous in cells; host or cells: HeLa cell extract
T2 sequence (Q53G59 1-568): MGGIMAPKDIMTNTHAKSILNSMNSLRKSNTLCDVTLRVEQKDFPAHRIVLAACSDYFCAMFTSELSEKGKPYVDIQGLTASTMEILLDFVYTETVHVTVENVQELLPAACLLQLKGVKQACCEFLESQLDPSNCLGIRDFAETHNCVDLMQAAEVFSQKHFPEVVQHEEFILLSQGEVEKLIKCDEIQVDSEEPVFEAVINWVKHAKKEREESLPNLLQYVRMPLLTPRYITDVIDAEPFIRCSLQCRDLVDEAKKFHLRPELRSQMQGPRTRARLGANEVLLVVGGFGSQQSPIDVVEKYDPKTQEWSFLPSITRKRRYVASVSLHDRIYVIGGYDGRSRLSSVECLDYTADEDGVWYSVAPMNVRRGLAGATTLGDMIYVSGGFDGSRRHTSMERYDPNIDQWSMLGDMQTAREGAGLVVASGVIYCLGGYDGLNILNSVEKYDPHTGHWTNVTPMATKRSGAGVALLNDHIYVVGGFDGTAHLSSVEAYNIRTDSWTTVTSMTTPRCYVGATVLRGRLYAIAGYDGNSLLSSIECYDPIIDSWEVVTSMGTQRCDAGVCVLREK

[3] = biological target: T3, HeLa cell extract proteins (Homo sapiens, UniProt Q96DG6)
T3 construct: endogenous in cells; host or cells: HeLa cell extract
T3 sequence (Q96DG6 1-245): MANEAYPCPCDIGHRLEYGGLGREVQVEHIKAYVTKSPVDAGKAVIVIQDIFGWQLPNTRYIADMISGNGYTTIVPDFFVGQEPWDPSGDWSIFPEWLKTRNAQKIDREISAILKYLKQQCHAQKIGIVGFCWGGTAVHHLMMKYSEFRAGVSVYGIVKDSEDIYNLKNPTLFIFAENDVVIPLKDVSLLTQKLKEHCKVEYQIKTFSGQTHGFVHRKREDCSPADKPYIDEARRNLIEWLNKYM

[4] = biological target: T4, HeLa cell extract proteins (Homo sapiens, UniProt Q9NPA3)
T4 construct: endogenous in cells; host or cells: HeLa cell extract
T4 sequence (Q9NPA3 whole entry): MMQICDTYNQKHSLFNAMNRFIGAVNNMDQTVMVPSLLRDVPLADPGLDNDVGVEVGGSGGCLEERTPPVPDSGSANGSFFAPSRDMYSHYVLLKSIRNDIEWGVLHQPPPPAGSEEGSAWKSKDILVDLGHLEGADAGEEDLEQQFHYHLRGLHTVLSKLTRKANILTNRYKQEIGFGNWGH

[5] = biological target: T5, HeLa cell extract proteins (Homo sapiens, UniProt P42345)
T5 construct: endogenous in cells; host or cells: HeLa cell extract

[6] = biological target: T6, HeLa cell extract proteins (Homo sapiens, UniProt Q14697)
T6 construct: endogenous in cells; host or cells: HeLa cell extract
T6 sequence (Q14697 29-944): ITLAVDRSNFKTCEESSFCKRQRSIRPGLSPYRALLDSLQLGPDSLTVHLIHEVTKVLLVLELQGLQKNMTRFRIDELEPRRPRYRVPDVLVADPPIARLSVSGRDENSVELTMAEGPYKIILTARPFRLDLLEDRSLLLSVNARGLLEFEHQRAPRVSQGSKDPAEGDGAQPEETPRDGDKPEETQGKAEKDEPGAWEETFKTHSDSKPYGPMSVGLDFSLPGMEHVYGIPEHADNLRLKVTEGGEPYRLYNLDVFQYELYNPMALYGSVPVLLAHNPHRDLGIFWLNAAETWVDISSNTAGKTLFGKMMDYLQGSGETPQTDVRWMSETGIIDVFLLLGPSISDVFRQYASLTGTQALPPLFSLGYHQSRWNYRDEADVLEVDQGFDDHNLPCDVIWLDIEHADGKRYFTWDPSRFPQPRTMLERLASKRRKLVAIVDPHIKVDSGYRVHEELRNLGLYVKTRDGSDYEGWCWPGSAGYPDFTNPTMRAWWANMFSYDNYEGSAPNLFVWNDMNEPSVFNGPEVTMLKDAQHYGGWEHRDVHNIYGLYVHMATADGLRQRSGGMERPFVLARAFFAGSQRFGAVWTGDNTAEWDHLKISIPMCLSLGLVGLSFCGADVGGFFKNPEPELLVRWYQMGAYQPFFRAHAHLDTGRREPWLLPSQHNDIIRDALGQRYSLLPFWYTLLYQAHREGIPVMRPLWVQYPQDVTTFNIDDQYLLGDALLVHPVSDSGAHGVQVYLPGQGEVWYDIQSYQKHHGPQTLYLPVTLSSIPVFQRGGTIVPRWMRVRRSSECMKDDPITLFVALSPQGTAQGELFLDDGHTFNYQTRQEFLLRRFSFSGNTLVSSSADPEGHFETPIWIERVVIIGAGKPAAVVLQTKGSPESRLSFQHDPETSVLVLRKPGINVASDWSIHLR

[7] = biological target: T7, HeLa cell extract proteins (Homo sapiens, UniProt O95831)
T7 construct: endogenous in cells; host or cells: HeLa cell extract
T7 sequence (O95831 102-613): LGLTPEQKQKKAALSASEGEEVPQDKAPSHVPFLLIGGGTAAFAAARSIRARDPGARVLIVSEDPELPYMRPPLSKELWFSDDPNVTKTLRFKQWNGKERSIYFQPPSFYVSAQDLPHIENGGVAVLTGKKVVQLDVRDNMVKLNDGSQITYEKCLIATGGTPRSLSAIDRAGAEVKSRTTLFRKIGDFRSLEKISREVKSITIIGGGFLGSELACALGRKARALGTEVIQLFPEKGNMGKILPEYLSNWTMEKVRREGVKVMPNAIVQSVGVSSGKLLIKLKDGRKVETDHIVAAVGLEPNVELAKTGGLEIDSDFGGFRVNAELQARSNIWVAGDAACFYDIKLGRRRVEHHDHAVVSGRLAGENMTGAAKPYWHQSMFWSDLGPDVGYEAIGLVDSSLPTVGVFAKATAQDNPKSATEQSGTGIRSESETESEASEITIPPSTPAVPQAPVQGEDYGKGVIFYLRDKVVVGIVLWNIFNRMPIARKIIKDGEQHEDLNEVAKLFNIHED

[8] = biological target: T8, HeLa cell extract proteins (Homo sapiens, UniProt Q9Y679)
T8 construct: endogenous in cells; host or cells: HeLa cell extract
T8 sequence (Q9Y679 1-410): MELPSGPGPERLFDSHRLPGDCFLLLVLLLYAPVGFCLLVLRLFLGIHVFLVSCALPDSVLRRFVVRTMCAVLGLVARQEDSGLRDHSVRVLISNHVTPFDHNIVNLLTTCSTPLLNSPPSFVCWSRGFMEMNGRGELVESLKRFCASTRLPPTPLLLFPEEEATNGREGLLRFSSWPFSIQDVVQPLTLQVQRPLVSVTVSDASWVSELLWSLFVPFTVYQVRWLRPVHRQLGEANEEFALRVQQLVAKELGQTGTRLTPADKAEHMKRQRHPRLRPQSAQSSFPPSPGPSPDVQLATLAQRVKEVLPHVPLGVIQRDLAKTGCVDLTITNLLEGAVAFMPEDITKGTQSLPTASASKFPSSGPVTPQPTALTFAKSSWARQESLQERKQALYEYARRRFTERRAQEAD

[9] = HeLa, protein KLHL12 (KELCH-LIKE PROTEIN 12)

| SMILES | fold changes relative to vehicle control ([1]; HeLa, protein PLSCR1) | fold changes relative to vehicle control ([2]; protein KLHL12, HeLa) | fold changes relative to vehicle control ([3]; protein CMBL, HeLa) | fold changes relative to vehicle control ([4]; captured protein MIG12, HeLa) | fold changes relative to vehicle control ([5]; captured protein mTOR, HeLa) | fold changes relative to vehicle control ([6]; protein GANAB, HeLa) | fold changes relative to vehicle control ([7]; captured protein AIFM1, HeLa) | fold changes relative to vehicle control ([8]; captured protein AUP1, HeLa) | fold changes relative to vehicle control ([1]; HeLa, captured protein PLSCR1) | fold changes relative to vehicle control [2, 9] | fold changes relative to vehicle control ([3]; HeLa, protein CMBL) | fold changes relative to vehicle control ([4]; HeLa, protein MIG12) | fold changes relative to vehicle control ([5]; HeLa, captured protein mTOR) | fold changes relative to vehicle control ([6]; HeLa, protein GANAB) | fold changes relative to vehicle control ([7]; protein AIFM1, HeLa) | fold changes relative to vehicle control ([8]; HeLa, protein AUP1) | also measured |
| --- | --- | --- | --- | --- | --- | --- | --- | --- | --- | --- | --- | --- | --- | --- | --- | --- | --- |
| Nc1nc2cccc(-c3ccccc3)c2n1Cc1ccc(Cl)c(Cl)c1 [compound 3] | 0.98 | 0.97 | 1.17 | 0.95 | 1.01 | 0.94 | 0.92 | 0.9 | – | – | – | – | – | – | – | – | – |
| CCCCCCOc1ccc(Cc2cnc(N)nc2N)cc1 [compound 1] | 1.02 | 1.15 | 1.08 | 0.84 | 0.89 | 1.08 | 0.97 | 0.98 | – | – | – | – | – | – | – | – | – |
| NCCCNc1ccc(C(=O)NC(CCC(=O)O)C(=O)O)cc1 (centres unmarked) [compound 7] | – | – | – | – | – | – | – | – | 1.07 | 1.31 | 1.25 | 1.11 | 1.2 | 0.97 | 1.06 | 0.9 | – |
| CCCCCCOc1cccc(Cc2cnc(N)nc2N)c1 [compound 2] | 0.86 | 1.3 | 1.38 | 1 | 1.1 | 1.28 | 1 | 1.25 | – | – | – | – | – | – | – | – | – |
| NCCOCCOCC(=O)Nc1nc2ncc(CNc3ccc(C(=O)NC(CCC(=O)O)C(=O)O)cc3)nc2c(=O)[nH]1 (centres unmarked) [compound 6] | – | – | – | – | – | – | – | – | 0.96 | 1.05 | 1.03 | 1.1 | 1.15 | 1.1 | 0.99 | 0.92 | – |
| Nc1nc2[nH]cc(CCc3ccc(C(=O)N[C@@H](CCC(=O)O)C(=O)O)cc3)c2c(=O)[nH]1 [PTX, pemetrexed] | – | – | – | – | – | – | – | – | – | – | – | – | – | – | – | – | fold changes relative to vehicle control [1]: 0.96; fold changes relative to vehicle control [2]: 1.07; fold changes relative to vehicle control [3]: 0.97; fold changes relative to vehicle control [4]: 0.96; fold changes relative to vehicle control [5]: 0.99; fold changes relative to vehicle control [6]: 1; fold changes relative to vehicle control [7]: 1.01; fold changes relative to vehicle control [8]: 0.89 |
| Nc1nc2c(c(=O)[nH]1)N(C=O)C(CNc1ccc(C(=O)N[C@@H](CCC(=O)O)C(=O)O)cc1)CN2 (some centres unmarked) [LEU, leucovorin] | – | – | – | – | – | – | – | – | 1.01 | 1.36 | 1.04 | 0.91 | 1.05 | 0.99 | 1.01 | 0.83 | – |
